Laboratory results as given in ChEMBL document CHEMBL1201861, “Genomics of Drug Sensitity in Cancer screening data, Wellcome Trust Sanger Institute”.
Several values for one entry are separate records, joined by “and”; a condition that tells them apart may be missing. Equal values may be shown once. Where a SMILES comes first, the peptide text is derived from it. The star is where a group is joined. Cbz = O=C(OCc1ccccc1)*

Tests used:
Experiment in all cases: cells
[1] = system: MOLT-4; assay type: functional, cell-based, Homo sapiens;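 also: growth inhibition of MOLT-4 cells, determined with a cell viability readout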
[2] = system: SNU-C2B; assay type: functional, cell-based; conditions: Homo sapiens;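 also: cell viability readout used to measure compound-driven suppression of SNU-C2B cell proliferation, IC50 marking half-maximal growth inhibition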
Description: SANGER: Inhibition of human SNU-C2B cell growth in a cell viability assay.

[3] = system: UACC-257; assay type: functional, cell-based, Homo sapiens
Description: SANGER: Inhibition of human UACC-257 cell growth in a cell viability assay.

[4] = system: NCI-H23; assay type: functional, cell-based, Homo sapiens;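 also: cell viability assay measuring growth inhibition of NCI-H23 cells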
Description: SANGER: Inhibition of human NCI-H23 cell growth in a cell viability assay.

[5] = system: SF-539; assay type: functional, cell-based, Homo sapiens;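 also: Read-out is a cell viability assay, with IC50 reflecting inhibition of cell growth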
Description: SANGER: Inhibition of human SF539 cell growth in a cell viability assay.

[6] = system: MFM-223; assay type: functional, cell-based, Homo sapiens
Description: SANGER: Inhibition of human MFM-223 cell growth in a cell viability assay.

[7] = system: NCI-H1770; assay type: functional, cell-based, Homo sapiens;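 also: growth inhibition of NCI-H1770 cells determined with a viability readout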
Description: SANGER: Inhibition of human NCI-H1770 cell growth in a cell viability assay.

[8] = system: no-11; assay type: functional, cell-based, Homo sapiens;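 also: growth inhibition of human NO-11 cells, read out with a cell viability assay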
Description: SANGER: Inhibition of human no-11 cell growth in a cell viability assay.

[9] = system: NB10; assay type: functional, cell-based, Homo sapiens;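 also: growth inhibition of NB10 cells, read out by a cell viability assay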
Description: SANGER: Inhibition of human NB10 cell growth in a cell viability assay.

[10] = system: SK-N-FI; assay type: functional, cell-based, Homo sapiens;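 also: cell viability assay measuring growth inhibition of human SK-N-FI cells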
Description: SANGER: Inhibition of human SK-N-FI cell growth in a cell viability assay.

[11] = system: NH-12; assay type: functional, cell-based, Homo sapiens;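 also: growth inhibition of NH-12 cells, read out with a cell viability assay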
Description: SANGER: Inhibition of human NH-12 cell growth in a cell viability assay.

[12] = system: SNU1; assay type: functional, cell-based, Homo sapiens;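 also: growth inhibition of human NCI-SNU-1 cells, measured with a cell viability assay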
Description: SANGER: Inhibition of human NCI-SNU-1 cell growth in a cell viability assay.

[13] = system: ONS-76; assay type: functional, cell-based, Homo sapiens;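 also: growth inhibition of human ONS-76 cells, read out with a cell viability assay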
Description: SANGER: Inhibition of human ONS-76 cell growth in a cell viability assay.

[14] = system: NCI-H1650; assay type: functional, cell-based, Homo sapiens;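 also: growth inhibition of human NCI-H1650 cells measured by a cell viability assay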
Description: SANGER: Inhibition of human NCI-H1650 cell growth in a cell viability assay.

[15] = system: KLE; assay type: functional, cell-based; conditions: Homo sapiens;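 also: growth inhibition of human KLE cells, read out with a cell viability assay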
Description: SANGER: Inhibition of human KLE cell growth in a cell viability assay.

[16] = system: ES6; assay type: functional, cell-based; conditions: Homo sapiens;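 also: growth inhibition of human ES6 cells, read out with a cell viability assay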
Description: SANGER: Inhibition of human ES6 cell growth in a cell viability assay.

[17] = system: IST-MEL1; assay type: functional, cell-based, Homo sapiens;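 also: growth inhibition of the cell line, read out with a cell viability assay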
Description: SANGER: Inhibition of human IST-MEL1 cell growth in a cell viability assay.

[18] = system: KNS-81-FD; assay type: functional, cell-based, Homo sapiens;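 also: growth inhibition of KNS-81-FD cells, read out with a cell viability assay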
Description: SANGER: Inhibition of human KNS-81-FD cell growth in a cell viability assay.

[19] = system: 697; assay type: functional, cell-based, Homo sapiens
[20] = system: IA-LM; assay type: functional, cell-based; conditions: Homo sapiens;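 also: cell viability assay measuring growth inhibition of human IA-LM cells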
Description: SANGER: Inhibition of human IA-LM cell growth in a cell viability assay.

[21] = system: LS-1034; assay type: functional, cell-based, Homo sapiens
Description: SANGER: Inhibition of human LS-1034 cell growth in a cell viability assay.

[22] = system: D-263MG; assay type: functional, cell-based, Homo sapiens
Description: SANGER: Inhibition of human D-263MG cell growth in a cell viability assay.

[23] = system: KNS-42; assay type: functional, cell-based; conditions: Homo sapiens;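 also: growth inhibition of KNS-42 cells, read out with a cell viability assay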
Description: SANGER: Inhibition of human KNS-42 cell growth in a cell viability assay.

[24] = system: SK-N-DZ; assay type: functional, cell-based, Homo sapiens;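 also: growth inhibition of the cancer cell line, read out through a viability assay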
Description: SANGER: Inhibition of human SK-N-DZ cell growth in a cell viability assay.

[25] = system: CTB-1; assay type: functional, cell-based, Homo sapiens
Description: SANGER: Inhibition of human CTB-1 cell growth in a cell viability assay.

[26] = system: DJM-1; assay type: functional, cell-based, Homo sapiens;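 also: growth inhibition of human DJM-1 cells, read out by a cell viability assay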
[27] = system: A4-Fuk; assay type: functional, cell-based, Homo sapiens;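 also: growth inhibition of A4-Fuk cells, read out by a cell viability assay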
Description: SANGER: Inhibition of human A4-Fuk cell growth in a cell viability assay.

[28] = system: RPMI-8866; assay type: functional, cell-based, Homo sapiens
[29] = system: IST-SL1; assay type: functional, cell-based, Homo sapiens;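 also: growth inhibition of human IST-SL1 cells, read out with a cell viability assay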
Description: SANGER: Inhibition of human IST-SL1 cell growth in a cell viability assay.

[30] = system: MZ7-mel; assay type: functional, cell-based, Homo sapiens;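 also: growth inhibition of human MZ7-mel cells, measured by a cell viability assay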
Description: SANGER: Inhibition of human MZ7-mel cell growth in a cell viability assay.

[31] = system: GI-ME-N; assay type: functional, cell-based, Homo sapiens;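 also: growth inhibition of human GI-ME-N cells, read out with a cell viability assay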
Description: SANGER: Inhibition of human GI-ME-N cell growth in a cell viability assay.

[32] = system: BT-474; assay type: functional, cell-based, Homo sapiens
Description: SANGER: Inhibition of human BT-474 cell growth in a cell viability assay.

[33] = system: EM-2; assay type: functional, cell-based, Homo sapiens;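 also: growth inhibition of EM-2 cells, read out with a cell viability assay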
Description: SANGER: Inhibition of human EM-2 cell growth in a cell viability assay.

[34] = system: SW872; assay type: functional, cell-based, Homo sapiens;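 also: growth inhibition of SW872 cells, read out by a viability assay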
Description: SANGER: Inhibition of human SW872 cell growth in a cell viability assay.

[35] = system: COLO-668; assay type: functional, cell-based, Homo sapiens
Description: SANGER: Inhibition of human COLO-668 cell growth in a cell viability assay.

[36] = system: U-266; assay type: functional, cell-based, Homo sapiens
[37] = system: LS-411N; assay type: functional, cell-based, Homo sapiens
[38] = system: J-RT3-T3-5; assay type: functional, cell-based, Homo sapiens;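 also: cell viability assay measuring growth inhibition of human J-RT3-T3-5 cells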
[39] = system: COLO-800; assay type: functional, cell-based, Homo sapiens;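 also: growth inhibition of COLO-800 cells, read out with a cell viability assay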
Description: SANGER: Inhibition of human COLO-800 cell growth in a cell viability assay.

[40] = system: MPP-89; assay type: functional, cell-based, Homo sapiens;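 also: growth inhibition of human MPP-89 cells, read out with a cell viability assay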
Description: SANGER: Inhibition of human MPP-89 cell growth in a cell viability assay.

[41] = system: MS-1; assay type: functional, cell-based, Homo sapiens;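 also: growth inhibition of MS-1 cells, read out by cell viability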
Description: SANGER: Inhibition of human MS-1 cell growth in a cell viability assay.

[42] = system: EW-11; assay type: functional, cell-based, Homo sapiens;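 also: growth inhibition of human EW-11 cells, measured with a cell viability assay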
Description: SANGER: Inhibition of human EW-11 cell growth in a cell viability assay.

[43] = system: CTV-1; assay type: functional, cell-based, Homo sapiens;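 also: growth inhibition of the cell line, read out with a cell viability assay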
Description: SANGER: Inhibition of human CTV-1 cell growth in a cell viability assay.

[44] = system: SNU-5; assay type: functional, cell-based, Homo sapiens;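 also: cell viability readout used to measure growth inhibition in human NCI-SNU-5 cells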
Description: SANGER: Inhibition of human NCI-SNU-5 cell growth in a cell viability assay.

[45] = system: NCI-H209; assay type: functional, cell-based, Homo sapiens;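 also: growth inhibition of human NCI-H209 cells, measured by a cell viability assay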
Description: SANGER: Inhibition of human NCI-H209 cell growth in a cell viability assay.

[46] = system: COR-L88; assay type: functional, cell-based, Homo sapiens;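 also: growth inhibition of COR-L88 cells, read out with a cell viability assay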
Description: SANGER: Inhibition of human COR-L88 cell growth in a cell viability assay.

[47] = system: KARPAS-45; assay type: functional, cell-based, Homo sapiens;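 also: inhibition of cell line growth, read out through a viability assay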
Description: SANGER: Inhibition of human KARPAS-45 cell growth in a cell viability assay.

[48] = system: Lu-65; assay type: functional, cell-based, Homo sapiens;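 also: growth inhibition of Lu-65 cancer cells, read out by a cell viability assay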
Description: SANGER: Inhibition of human LU-65 cell growth in a cell viability assay.

[49] = system: NCI-H69; assay type: functional, cell-based, Homo sapiens;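 also: growth inhibition of the cell line, read out with a cell viability assay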
Description: SANGER: Inhibition of human NCI-H69 cell growth in a cell viability assay.

[50] = system: JVM-2; assay type: functional, cell-based, Homo sapiens;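 also: growth inhibition of JVM-2 cells determined by a cell viability assay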
Description: SANGER: Inhibition of human JVM-2 cell growth in a cell viability assay.

## CS(=O)(=O)N1CCN(Cc2cc3nc(-c4cccc5[nH]ncc45)nc(N4CCOCC4)c3s2)CC1 [PICTILISIB]
[1]; Homo sapiens, MOLT-4
  IC50: 624 nM
[2]
  IC50: > 4000 nM
[3]; Homo sapiens, UACC-257
  IC50: > 4000 nM
[4]; Homo sapiens, NCI-H23
  IC50: > 4000 nM
[5]; Homo sapiens, SF-539
  IC50: > 4000 nM
[6]; Homo sapiens, MFM-223
  IC50: > 4000 nM
[7]; Homo sapiens, NCI-H1770
  IC50: 124 nM
[8]; Homo sapiens
  IC50: > 4000 nM
[9]; Homo sapiens, NB10
  IC50: > 4000 nM
[10]; Homo sapiens, SK-N-FI
  IC50: > 4000 nM
[11]; Homo sapiens, NH-12
  IC50: 2050 nM
[12]; Homo sapiens, SNU1
  IC50: > 4000 nM
[13]; Homo sapiens, ONS-76
  IC50: > 4000 nM
[14]; Homo sapiens, NCI-H1650
  IC50: > 4000 nM
[15]
  IC50: > 4000 nM
[16]
  IC50: > 4000 nM
[17]; Homo sapiens, IST-MEL1
  IC50: > 4000 nM
[18]; Homo sapiens, KNS-81-FD
  IC50: > 4000 nM
[19]; Homo sapiens
  IC50: 832 nM
[20]
  IC50: > 4000 nM
[21]; Homo sapiens, LS-1034
  IC50: > 4000 nM
[22]; Homo sapiens, D-263MG
  IC50: 718 nM
[23]
  IC50: > 4000 nM
[24]; Homo sapiens, SK-N-DZ, read-out: IC50
  IC50: > 4000 nM
[25]; Homo sapiens, CTB-1
  IC50: 1140 nM
[26]; Homo sapiens, DJM-1
  IC50: > 4000 nM
[27]; Homo sapiens, A4-Fuk
  IC50: 1300 nM
[28]; Homo sapiens, RPMI-8866
  IC50: > 4000 nM
[29]; Homo sapiens, IST-SL1
  IC50: > 4000 nM
[30]; Homo sapiens, MZ7-mel
  IC50: > 4000 nM
[31]; Homo sapiens, GI-ME-N
  IC50: > 4000 nM
[32]; Homo sapiens, BT-474
  IC50: > 4000 nM
[33]; Homo sapiens, EM-2
  IC50: 2510 nM
[34]; Homo sapiens, SW872
  IC50: 728 nM
[35]; Homo sapiens, COLO-668
  IC50: > 4000 nM
[36]; Homo sapiens, U-266
  IC50: > 4000 nM
[37]; Homo sapiens, LS-411N
  IC50: > 4000 nM
[38]; Homo sapiens, J-RT3-T3-5
  IC50: > 4000 nM
[39]; Homo sapiens, COLO-800
  IC50: > 4000 nM
[40]; Homo sapiens, MPP-89
  IC50: > 4000 nM
[41]; Homo sapiens, MS-1
  IC50: > 4000 nM
[42]; Homo sapiens, EW-11
  IC50: > 4000 nM

## Cc1ccc(NC(=O)c2ccc(CN3CCN(C)CC3)cc2)cc1Nc1nccc(-c2cccnc2)n1 [IMATINIB]
[1]; Homo sapiens, MOLT-4
  IC50: > 2000 nM
[2]
  IC50: > 2000 nM
[4]; Homo sapiens, NCI-H23
  IC50: > 2000 nM
[5]; Homo sapiens, SF-539
  IC50: > 2000 nM
[6]; Homo sapiens, MFM-223
  IC50: > 2000 nM
[7]; Homo sapiens, NCI-H1770
  IC50: > 2000 nM
[8]; Homo sapiens
  IC50: > 2000 nM
[9]; Homo sapiens, NB10
  IC50: > 2000 nM
[43]; Homo sapiens, CTV-1
  IC50: > 2000 nM
[10]; Homo sapiens, SK-N-FI
  IC50: > 2000 nM
[11]; Homo sapiens, NH-12
  IC50: > 2000 nM
[12]; Homo sapiens, SNU1
  IC50: > 2000 nM
[13]; Homo sapiens, ONS-76
  IC50: > 2000 nM
[15]
  IC50: > 2000 nM
[16]
  IC50: > 2000 nM
[17]; Homo sapiens, IST-MEL1
  IC50: > 2000 nM
[44]; Homo sapiens, SNU-5
  IC50: > 2000 nM
[18]; Homo sapiens, KNS-81-FD
  IC50: > 2000 nM
[19]; Homo sapiens
  IC50: > 2000 nM
[45]; Homo sapiens, NCI-H209
  IC50: > 2000 nM
[20]
  IC50: > 2000 nM
[21]; Homo sapiens, LS-1034
  IC50: > 2000 nM
[22]; Homo sapiens, D-263MG
  IC50: > 2000 nM
[23]
  IC50: > 2000 nM
[46]; Homo sapiens, COR-L88
  IC50: > 2000 nM
[24]; Homo sapiens, SK-N-DZ
  IC50: > 2000 nM
[25]; Homo sapiens, CTB-1
  IC50: > 2000 nM
[26]; Homo sapiens, DJM-1
  IC50: > 2000 nM
[27]; Homo sapiens, A4-Fuk
  IC50: > 2000 nM
[28]; Homo sapiens, RPMI-8866
  IC50: > 2000 nM
[29]; Homo sapiens, IST-SL1
  IC50: > 2000 nM
[30]; Homo sapiens, MZ7-mel
  IC50: > 2000 nM
[31]; Homo sapiens, GI-ME-N
  IC50: > 2000 nM
[32]; Homo sapiens, BT-474
  IC50: > 2000 nM
[33]; Homo sapiens, EM-2
  IC50: 88.8 nM
[34]; Homo sapiens, SW872
  IC50: > 2000 nM
[35]; Homo sapiens, COLO-668
  IC50: > 2000 nM
[36]; Homo sapiens, U-266
  IC50: > 2000 nM
[47]; Homo sapiens, KARPAS-45
  IC50: > 2000 nM
[37]; Homo sapiens, LS-411N
  IC50: > 2000 nM
[38]; Homo sapiens, J-RT3-T3-5
  IC50: > 2000 nM
[39]; Homo sapiens, COLO-800
  IC50: > 2000 nM
[48]; Homo sapiens, Lu-65
  IC50: > 2000 nM
[49]; Homo sapiens, NCI-H69
  IC50: > 2000 nM
[40]; Homo sapiens, MPP-89
  IC50: > 2000 nM
[41]; Homo sapiens, MS-1
  IC50: > 2000 nM
[42]; Homo sapiens, EW-11
  IC50: > 2000 nM
[50]; Homo sapiens, JVM-2
  IC50: > 2000 nM

## CC(C)C[C@@H](C=O)NC(=O)[C@H](CC(C)C)NC(=O)[C@H](CC(C)C)NC(=O)OCc1ccccc1 [MG-132] (Cbz-Leu-Leu-Leu-aldehyde)
[1]; molt-4
  IC50: > 1000 nM
[2]
  IC50: 707 nM
[3]; uacc-257
  IC50: 119 nM and > 1000 nM
[4]; nci-h23
  IC50: > 1000 nM
[5]; sf-539
  IC50: > 1000 nM
[6]; mfm-223
  IC50: > 1000 nM
[7]; nci-h1770
  IC50: > 1000 nM
[8]
  IC50: > 1000 nM
[9]; nb10
  IC50: > 1000 nM
[43]; ctv-1
  IC50: > 1000 nM
[10]; sk-n-fi
  IC50: > 1000 nM
[11]; nh-12
  IC50: > 1000 nM
[12]; snu1
  IC50: > 1000 nM
[13]; ons-76
  IC50: 129 nM and 899 nM
[14]; nci-h1650
  IC50: > 1000 nM
[15]
  IC50: 313 nM
[17]; ist-mel1
  IC50: > 1000 nM
[44]; snu-5
  IC50: 695 nM and > 1000 nM
[18]; kns-81-fd
  IC50: 303 nM and > 1000 nM
[19]
  IC50: > 1000 nM
[45]; nci-h209
  IC50: > 1000 nM
[20]
  IC50: > 1000 nM
[21]; ls-1034
  IC50: > 1000 nM
[22]; d-263mg
  IC50: 160 nM and > 1000 nM
[46]; cor-l88
  IC50: > 1000 nM
[24]; sk-n-dz, read-out: IC50
  IC50: > 1000 nM
[25]; ctb-1
  IC50: 780 nM and > 1000 nM
[26]; djm-1
  IC50: > 1000 nM
[27]; a4-fuk
  IC50: > 1000 nM
[28]; Homo sapiens, RPMI-8866
  IC50: > 1000 nM
[28]; rpmi-8866
  IC50: > 1000 nM
[29]; ist-sl1
  IC50: 201 nM and > 1000 nM
[30]; mz7-mel
  IC50: 264 nM and > 1000 nM
[31]; gi-me-n
  IC50: 193 nM and > 1000 nM
[32]; bt-474
  IC50: > 1000 nM
[33]; em-2
  IC50: > 1000 nM and 878 nM
[34]; sw872
  IC50: 657 nM and > 1000 nM
[35]; Homo sapiens, COLO-668
  IC50: > 1000 nM
[35]; colo-668
  IC50: > 1000 nM
[36]; u-266
  IC50: > 1000 nM
[47]; karpas-45
  IC50: > 1000 nM
[37]; ls-411n
  IC50: > 1000 nM
[38]; j-rt3-t3-5
  IC50: > 1000 nM
[39]; colo-800
  IC50: > 1000 nM
[48]; lu-65
  IC50: > 1000 nM
[49]; nci-h69
  IC50: 151 nM and > 1000 nM
[40]; mpp-89
  IC50: > 1000 nM
[41]; Homo sapiens, MS-1
  IC50: > 1000 nM
[41]; ms-1
  IC50: > 1000 nM
[42]; ew-11
  IC50: > 1000 nM
[50]; jvm-2
  IC50: > 1000 nM
